The values below come from patent US20110002859A1, “CHEWING GUM CONTAINING EUCALYPTUS EXTRACT” (LOTTE CO., LTD., priority 2008, published 2011).

Experiment [1] deals with Porphyromonas gingivalis ATCC33277. As to the kind of experiment: In vitro antibacterial activity, minimum inhibitory concentration (MIC). It is filed as cell-based. The following applies: 37° C., anaerobic, 24 to 48 hours, turbidity 550 nm; read-out: MIC, bacterial strain a. How it is done: (§1) In vitro antibacterial activities of Macrocarpal A, macrocarpal B, and macrocarpal C were evaluated according to the following procedure. First, to 25 ml of a medium, added were 2.5 ml of various pre-cultured periodontopathic bacteria described below, and the whole was mixed well. A sample solution was prepared by diluting in two stages a sample stock solution on a 96-well plate by using a diluent. Within each well of the 96-well plate, 100 μl of the sample solution and 100 μl of a bacterial solution were mixed, and cultivated at 37° C. under an anaerobic condition for 24 to 48 hours. The turbidity (550 nm) of each well was measured with a microplate reader, the growth of the bacterium was assessed, and its minimum inhibitory concentration (MIC) was determined. […] (Used Bacterial Strain) a: Porphyromonas gingivalis ATCC33277

In experiment [2] the test system is Prevotella intermedia ATCC25611. The description is as above. Format: cell-based. Conditions: 37° C., anaerobic, 24 to 48 hours, turbidity 550 nm; read-out: MIC, bacterial strain b. Here is the method: as §1, with “b: Prevotella intermedia ATCC25611” for “a: Porphyromonas gingivalis ATCC33277”
Experiment [3] has as its system Prevotella melaninogenica ATCC25845. The description is as above. It is filed as cell-based. Conditions: 37° C., anaerobic, 24 to 48 hours, turbidity 550 nm; read-out: MIC, bacterial strain c. Here is the method: as §1, with “c: Prevotella melaninogenica ATCC25845” for “a: Porphyromonas gingivalis ATCC33277”
In experiment [4] the test system is Capnocytophaga ochracea ATCC33596. The experiment is described as above. Format: cell-based. The following applies: 37° C., anaerobic, 24 to 48 hours, turbidity 550 nm; read-out: MIC, bacterial strain d. Here is the method: as §1, with “d: Capnocytophaga ochracea ATCC33596” for “a: Porphyromonas gingivalis ATCC33277”
The test system of experiment [5] is periodontopathic bacteria. Nature of the experiment: In vitro growth prevention of all tested periodontopathic bacteria. Conditions: all four strains of Table 1. Format: cell-based. How it is done: In vitro antibacterial activities of Macrocarpal A, macrocarpal B, and macrocarpal C were evaluated according to the following procedure. First, to 25 ml of a medium, added were 2.5 ml of various pre-cultured periodontopathic bacteria described below, and the whole was mixed well. A sample solution was prepared by diluting in two stages a sample stock solution on a 96-well plate by using a diluent. Within each well of the 96-well plate, 100 μl of the sample solution and 100 μl of a bacterial solution were mixed, and cultivated at 37° C. under an anaerobic condition for 24 to 48 hours. The turbidity (550 nm) of each well was measured with a microplate reader, the growth of the bacterium was assessed, and its minimum inhibitory concentration (MIC) was determined.

Experiment [6] deals with periodontopathic bacteria. Conditions: background art; cited from earlier work.

Each structure is given as a SMILES string. Converted amounts (≈) assume the structure as drawn.

Usually MIC stands for the smallest concentration in the dilution series that meets the test's criterion for growth inhibition. For the compound `CC(C)C[C@@H](c1c(O)c(C=O)c(O)c(C=O)c1O)[C@@]1(C)CC[C@@H]2[C@@H]1[C@H]1[C@@H](CC[C@@]2(C)O)C1(C)C` [Macrocarpal A, macrocarpal A], the MIC was 0.195 µg/mL (≈ 0.413 µM) in experiment [1], 0.195 µg/mL (≈ 0.413 µM) in experiment [2], 0.78 µg/mL (≈ 1.65 µM) in experiment [3] and 0.39 µg/mL (≈ 0.825 µM) in experiment [4]. For the same compound, in experiment [5], the “concentration capable of preventing periodontopathic bacteria from growing up” value (“concentration capable” below) came to 0.78 µg/mL.

Regarding `CC12CCC(CC1)C(C)(C)O2` [cineole], the “antibacterial activities against periodontopathic bacteria” value in experiment [6] is “weak antibacterial activities”.

On to `C=C1CC[C@@H]2[C@H]([C@H]3[C@H]1CC[C@]3(C)[C@@H](CC(C)C)c1c(O)c(C=O)c(O)c(C=O)c1O)C2(C)C` [Macrocarpal C, macrocarpal C], for which the MIC in experiment [1] came out at 0.195 µg/mL (≈ 0.429 µM); in experiment [2] it was 0.39 µg/mL (≈ 0.858 µM); in experiment [3], 1.58 µg/mL (≈ 3.48 µM); in experiment [4] it was 0.39 µg/mL (≈ 0.858 µM). Moreover, in experiment [5], the “concentration capable” value was found to be 1.58 µg/mL.

In the case of `CC(C)C[C@H](c1c(O)c(C=O)c(O)c(C=O)c1O)[C@@]1(C)CC[C@@H]2[C@@H]1[C@H]1[C@@H](CC[C@@]2(C)O)C1(C)C` [Macrocarpal B, macrocarpal B], the minimal inhibitory concentration (MIC) was 0.78 µg/mL (≈ 1.65 µM) in experiment [1], 1.58 µg/mL (≈ 3.34 µM) in experiment [2], 3.13 µg/mL (≈ 6.62 µM) in experiment [3] and 1.56 µg/mL (≈ 3.3 µM) in experiment [4]. Moreover, in experiment [5], the “concentration capable” value stood at 3.13 µg/mL.
